How the values were obtained:
[1] = skeletal imaging prior to 1971; cited from earlier work
[2] = monoenergetic; cited from earlier work
[3] = compared with stannous chloride
[4] = Subramanian and McAfee, Radiology 1971; cited from earlier work
[5] = long chain polyphosphate material; cited from earlier work

## [18FH] [Fluorine-18, fluorine-18]
[1]
  scan performance (in words): good agent

## [85Sr] [Strontium-85, strontium-85]
[1]
  scan performance (in words): poor quality scans

## [87Sr] [Strontium-87m, strontium-87m]
[1]
  scan performance (in words): high blood background

## [99Tc] [technetium-99m]
[2]
  gamma emission energy: 140 KeV

## Stannous fluoride
[3]
  stability to hydrolysis in aqueous solution (in words): more stable to hydrolysis in aqueous solution than stannous chloride

## tripolyphosphate
[4]
  skeletal uptake / localization (in words): good skeletal uptake of activity
[5]
  stability with respect to hydrolysis (in words): instability of the long chain polyphosphate material with respect to hydrolysis

Reference: patent US3984531A, “Technetium-99m-tin-monofluorophosphate complex” (The Radiochemical Centre Limited, priority 1973, dated 1976)
